In PubChem BioAssay (NCI):
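In this assay, cells in 96-well plates receive the compound at five concentrations for 48 hours. Endpoints are linearly interpolated between the surrounding concentrations. TGI: concentration producing complete growth inhibition.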

Columns and labels:
Assay in all cases: inhibition of tumour cell growth, NCI panel, 48 h
HCT-116 colon = system: HCT-116 colon
MALME-3M melanoma = system: MALME-3M melanoma
NCI-H226 lung = system: NCI-H226 lung
SK-MEL-2 melanoma = system: SK-MEL-2 melanoma
HOP-62 NSCLC = system: HOP-62 NSCLC
UACC-257 melanoma = system: UACC-257 melanoma
SW-620 colon = system: SW-620 colon
BT-549 breast = system: BT-549 breast
MDA-MB-231 breast = system: MDA-MB-231 breast
NCI/ADR-RES ovarian = system: NCI/ADR-RES ovarian
HL-60(TB) leukemia = system: HL-60(TB) leukemia
A498 renal = system: A498 renal
NCI-H23 lung = system: NCI-H23 lung
MDA-N = system: MDA-N
SF-268 CNS = system: SF-268 CNS
HT29 colon = system: HT29 colon
PC-3 prostate = system: PC-3 prostate
SNB-19 CNS = system: SNB-19 CNS
SN12C renal = system: SN12C renal
T-47D breast = system: T-47D breast
A549 NSCLC = system: A549 NSCLC
IGROV1 ovarian = system: IGROV1 ovarian
OVCAR-5 ovarian = system: OVCAR-5 ovarian
LOX IMVI melanoma = system: LOX IMVI melanoma
NCI-H460 lung = system: NCI-H460 lung
CCRF-CEM leukemia = system: CCRF-CEM leukemia
SNB-75 CNS = system: SNB-75 CNS
SK-MEL-5 melanoma = system: SK-MEL-5 melanoma
MOLT-4 leukemia = system: MOLT-4 leukemia
HCC-2998 colon = system: HCC-2998 colon
786-0 renal = system: 786-0 renal
U251 CNS = system: U251 CNS
DU-145 prostate = system: DU-145 prostate
SK-OV-3 ovarian = system: SK-OV-3 ovarian
HS 578T breast = system: HS 578T breast
ACHN renal = system: ACHN renal
RPMI-8226 leukemia = system: RPMI-8226 leukemia
SR leukemia = system: SR leukemia
CAKI-1 renal = system: CAKI-1 renal
NCI-H522 lung = system: NCI-H522 lung
K-562 leukemia = system: K-562 leukemia
UO-31 renal = system: UO-31 renal
M14 melanoma = system: M14 melanoma
HOP-92 NSCLC = system: HOP-92 NSCLC
OVCAR-8 ovarian = system: OVCAR-8 ovarian
KM12 colon = system: KM12 colon
MDA-MB-435 = system: MDA-MB-435
EKVX NSCLC = system: EKVX NSCLC
SF-295 CNS = system: SF-295 CNS
OVCAR-4 ovarian = system: OVCAR-4 ovarian
UACC-62 melanoma = system: UACC-62 melanoma
SK-MEL-28 melanoma = system: SK-MEL-28 melanoma
SF-539 CNS = system: SF-539 CNS
COLO 205 colon = system: COLO 205 colon
TK-10 renal = system: TK-10 renal
HCT-15 colon = system: HCT-15 colon
OVCAR-3 ovarian = system: OVCAR-3 ovarian
MCF7 breast = system: MCF7 breast

`O=C1CCC2C(O)c3cc4c(cc3C(c3ccc5c(c3)OCO5)N12)OCO4` (stereo unspecified) showed a TGI (HCT-116 colon) greater than 100 µM, a TGI (MALME-3M melanoma) greater than 100 µM and a TGI (NCI-H226 lung) greater than 100 µM. The TGI (SK-MEL-2 melanoma) was greater than 100 µM, the TGI (HOP-62 NSCLC) was 63.7 µM and the TGI (UACC-257 melanoma) was greater than 100 µM. It also gave a TGI (SW-620 colon) greater than 100 µM, a TGI (BT-549 breast) greater than 100 µM and a TGI (MDA-MB-231 breast) greater than 100 µM. The TGI (NCI/ADR-RES ovarian) was greater than 100 µM, the TGI (HL-60(TB) leukemia) was greater than 100 µM and the TGI (A498 renal) was greater than 100 µM. For the same compound, the TGI (NCI-H23 lung) was greater than 100 µM, the TGI (MDA-N) was greater than 100 µM and the TGI (SF-268 CNS) was 52.5 µM. The TGI (HT29 colon) was greater than 100 µM, the TGI (PC-3 prostate) was greater than 100 µM and the TGI (SNB-19 CNS) was greater than 100 µM. It also gave a TGI (SN12C renal) greater than 100 µM, a TGI (T-47D breast) greater than 100 µM and a TGI (A549 NSCLC) greater than 100 µM. It also gave a TGI (IGROV1 ovarian) greater than 100 µM, a TGI (OVCAR-5 ovarian) greater than 100 µM and a TGI (LOX IMVI melanoma) greater than 100 µM. The TGI (NCI-H460 lung) was greater than 100 µM, the TGI (CCRF-CEM leukemia) was greater than 100 µM and the TGI (SNB-75 CNS) was 41.5 µM. For the same compound, the TGI (SK-MEL-5 melanoma) was greater than 100 µM, the TGI (MOLT-4 leukemia) was greater than 100 µM and the TGI (HCC-2998 colon) was greater than 100 µM. The TGI (786-0 renal) was greater than 100 µM, the TGI (U251 CNS) was 60.9 µM and the TGI (DU-145 prostate) was greater than 100 µM. For the same compound, the TGI (SK-OV-3 ovarian) was greater than 100 µM, the TGI (HS 578T breast) was 81.7 µM and the TGI (ACHN renal) was greater than 100 µM. The TGI (RPMI-8226 leukemia) was greater than 100 µM, the TGI (SR leukemia) was greater than 100 µM and the TGI (CAKI-1 renal) was greater than 100 µM. The TGI (NCI-H522 lung) was greater than 100 µM, the TGI (K-562 leukemia) was greater than 100 µM and the TGI (UO-31 renal) was greater than 100 µM. For the same compound, the TGI (M14 melanoma) was greater than 100 µM, the TGI (HOP-92 NSCLC) was 66.8 µM and the TGI (OVCAR-8 ovarian) was greater than 100 µM. The TGI (KM12 colon) was greater than 100 µM, the TGI (MDA-MB-435) was greater than 100 µM and the TGI (EKVX NSCLC) was greater than 100 µM. The TGI (SF-295 CNS) was greater than 100 µM, the TGI (OVCAR-4 ovarian) was greater than 100 µM and the TGI (UACC-62 melanoma) was greater than 100 µM. It also gave a TGI (SK-MEL-28 melanoma) greater than 100 µM, a TGI (SF-539 CNS) greater than 100 µM and a TGI (COLO 205 colon) greater than 100 µM. It also gave a TGI (TK-10 renal) greater than 100 µM, a TGI (HCT-15 colon) greater than 100 µM and a TGI (OVCAR-3 ovarian) greater than 100 µM. For the same compound, the TGI (MCF7 breast) was greater than 100 µM.

Work on `C=CCOc1cccc(C2(O)c3ccccc3C3=NCCCN32)c1` (stereo unspecified) yielded a TGI (HCT-116 colon) of 29.6 µM, a TGI (MALME-3M melanoma) of 35.1 µM and a TGI (NCI-H226 lung) greater than 31.6 µM. It also gave a TGI (SK-MEL-2 melanoma) of 17.5 µM, a TGI (HOP-62 NSCLC) of 38.8 µM and a TGI (UACC-257 melanoma) of 33.1 µM. It also gave a TGI (SW-620 colon) of 28.7 µM, a TGI (BT-549 breast) greater than 100 µM and a TGI (MDA-MB-231 breast) greater than 100 µM. The TGI (NCI/ADR-RES ovarian) was greater than 75.6 µM, the TGI (HL-60(TB) leukemia) was greater than 35.6 µM and the TGI (A498 renal) was 53.2 µM. For the same compound, the TGI (NCI-H23 lung) was greater than 47.2 µM, the TGI (MDA-N) was 33.1 µM and the TGI (SF-268 CNS) was greater than 100 µM. It also gave a TGI (HT29 colon) of 27.2 µM, a TGI (PC-3 prostate) greater than 44.4 µM and a TGI (SNB-19 CNS) of 18.4 µM. The TGI (SN12C renal) was greater than 68.8 µM, the TGI (T-47D breast) was 45.5 µM and the TGI (A549 NSCLC) was greater than 39.4 µM. For the same compound, the TGI (IGROV1 ovarian) was greater than 37.4 µM, the TGI (OVCAR-5 ovarian) was greater than 77.9 µM and the TGI (LOX IMVI melanoma) was 29.4 µM. The TGI (NCI-H460 lung) was 36.7 µM, the TGI (CCRF-CEM leukemia) was 40.9 µM and the TGI (SNB-75 CNS) was 36.8 µM. The TGI (SK-MEL-5 melanoma) was 41.9 µM, the TGI (MOLT-4 leukemia) was 40 µM and the TGI (HCC-2998 colon) was 29.6 µM. For the same compound, the TGI (786-0 renal) was 25.2 µM, the TGI (U251 CNS) was 32.5 µM and the TGI (DU-145 prostate) was greater than 100 µM. For the same compound, the TGI (SK-OV-3 ovarian) was greater than 100 µM, the TGI (HS 578T breast) was greater than 78.4 µM and the TGI (ACHN renal) was 26.5 µM. It also gave a TGI (RPMI-8226 leukemia) of 40.3 µM, a TGI (SR leukemia) of 32.6 µM and a TGI (CAKI-1 renal) greater than 86.6 µM. It also gave a TGI (NCI-H522 lung) of 41.4 µM, a TGI (K-562 leukemia) greater than 35.4 µM and a TGI (UO-31 renal) of 29.4 µM. For the same compound, the TGI (M14 melanoma) was 26.1 µM, the TGI (HOP-92 NSCLC) was greater than 82.6 µM and the TGI (OVCAR-8 ovarian) was greater than 43.2 µM. The TGI (KM12 colon) was 24.7 µM, the TGI (MDA-MB-435) was 26 µM and the TGI (EKVX NSCLC) was greater than 35.1 µM. The TGI (SF-295 CNS) was 7.83 µM, the TGI (OVCAR-4 ovarian) was greater than 80.1 µM and the TGI (UACC-62 melanoma) was 31.6 µM. The TGI (SK-MEL-28 melanoma) was 24.7 µM, the TGI (SF-539 CNS) was 37.6 µM and the TGI (COLO 205 colon) was 33.5 µM. It also gave a TGI (TK-10 renal) greater than 100 µM, a TGI (HCT-15 colon) greater than 50 µM and a TGI (OVCAR-3 ovarian) of 10.4 µM. For the same compound, the TGI (MCF7 breast) was 32 µM.
